Results as given in paper PMC2993163 (Structure (London, England : 1993), 2009).

Target: T1, BdRppH (Bdellovibrio bacteriovorus, UniProt Q6MPX4)
T1 sequence (Q6MPX4 1-153): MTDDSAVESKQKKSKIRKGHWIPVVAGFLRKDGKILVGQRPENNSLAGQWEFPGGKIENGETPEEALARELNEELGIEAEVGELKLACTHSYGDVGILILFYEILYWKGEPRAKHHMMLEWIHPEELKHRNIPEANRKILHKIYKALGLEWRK
Test: X-ray crystal structure
Type: binding
Conditions: deposited complex; not described in text

## Nc1nc2c(ncn2[C@H]2C[C@H](O)[C@@H](COP(=O)(O)OP(=O)(O)OP(=O)(O)O)O2)c(=O)[nH]1 [dGTP]
  X-ray crystal structure: RNA pyrophosphohydrolase in complex with dGTP
